US20050027016A1, “Polyamine compounds and compositions for use in conjection with cancer therapy” (priority 2002, published 2005)
pIC50: −log10 of the molar value. Like-named read-outs stand apart in the source and are kept apart here.

Experiments:
[1] = system: primary, diploid fibroblasts isolated from human skin; assay: In vitro growth inhibition of primary diploid human skin fibroblasts; assay type: cell-based
Method: FIG. 2 illustrates the relationship between the number of aliphatic carbon atoms in each chemoprotective polyamine side chain (‘arm’) and the respective IC50 dose for inhibition of human fibroblast growth.
The in vitro growth inhibitory effects of certain of the chemoprotective polyamines of the invention were measured using primary, diploid fibroblasts isolated from human skin.

helical B-DNA = assay: DNA binding/denaturation/precipitation from solution
Description: The chemoprotective polyamines of the invention are also able to bind, denature and precipitate DNA from solution As is known in the field, as the concentration of polyamine is increased, there is a point where polyamine binding to helical B-DNA induces single-stranded ‘bubbles’ and conversion to other forms of DNA structure, such as 2-DNA (Feuerstein, B. et al. Nuc. Acids Res. 17:6883-6892, 1989; Basu, H. and Marton, L. Biochem. J. 244:243-246, 1987), as well as precipitating the DNA from solution.
This relationship between arm length of the chemoprotective polyamine and increased ability to disrupt and denature B-DNA structure is also a unique aspect of this invention. The increased ability to bind DNA and disrupt its helical structure may also contribute to the molecule's ability to protect cellular DNA against electrophilic chemotherapy drug metabolites and against oxygen free radicals generated during radiotherapy. Both of these toxic modalities are believed to require normal B-DNA helical structure within the cell's nuclear DNA in order to achieve chemical or physical disruption of the cellular DNA, the first step in the apoptotic cascade.

p21 = p21 induction in 23SK human skin cells by western analysis; assay type: cell-based; conditions: 30 hr exposure
Method: FIGS. 3A and 3B illustrate the level of induced p21 protein seen in diploid human fibroblasts after a 30 hr exposure to each of the indicated chemoprotective polyamines. […] In these experiments, the 23SK human skin cells were exposed for 30 hr to an “ICso” dose of each of the indicated chemoprotective polyamines and then lysed. Cell extracts were then prepared in order to measure p21 levels by western analysis (FIG. 3A).
FIG. 3 illustrates that chemoprotective polyamines are able to induce expression of the negative cell cycle regulatory protein, p21, after exposing the human skin cells to the polyamine molecules. […] In these experiments, the 23SK human skin cells were exposed for 30 hr to an “IC80” dose of each of the indicated chemoprotective polyamines and then lysed. Cell extracts were then prepared in order to measure p21 levels by western analysis (FIG. 3A). Although the ability of modified polyamines to induce p21 is known in the literature (Kramer, D. et al., Cancer Res. 59:1278-1286, 1999), it is a novel aspect of this invention that those chemoprotective polyamines with longer aliphatic “arms” were better able to induce expression of p21 as shown in FIG. 4.

23SK skin cells = assay: Cell cycle distribution by flow cytometry in 23SK skin cells; assay type: cell-based, human; conditions: for Cell Cycle Distribution At IC80 Dose: G1 / Cell Cycle Distribution At IC80 Dose: G2/M / Cell Cycle Distribution At IC80 Dose: S: 23SK cells
Description: FIGS. 5A-5D are cell histograms showing the results from flow cytometry analysis of chemoprotective polyamine-treated 23SK skin cells.
In FIG. 5, cell histograms showing the results from flow cytometry analysis of chemoprotective polyamine-treated 23SK skin cells are shown. […] The transient nature of the cell cycle block induced by chemoprotective polyamines is believed to be an important aspect of their efficacy, i.e., their ability to block cell cycle progression in stem cells during the course of chemo- or radiotherapy, and the resumption of normal stem cell division after a given cancer therapy course has been completed.

[2] = system: Cytoxan-induced alopecia in the rat model; assay type: in vivo; conditions: rat pups, 35 ug/gm i.p., approximately 7 days after challenge
Description: FIGS. 6A-6E illustrate the efficacy of each of the indicated chemoprotective polyamines in protecting against Cytoxan-induced alopecia in the rat model Hussein et al., 1990, infra). In this protocol (See Example 2), chemoprotective polyamines are applied topically to the rat pups' backs in an alcohol:water delivery vehicle, once per day, for five days before and five days after a single systemic dose of Cytoxan.
The efficacy of […] polyamines in reducing or preventing chemotherapy-induced alopecia in a rat model was examined. This animal model mimics many of the features found in chemotherapy-induced alopecia seen in humans and is considered a clinically relevant model for testing novel therapeutics.
Induction of alopecia by cytoxan (CTX). Lactating Sprague Dawley mother rats with rat pups were purchased from Harlan Sprague Dawley (Indianapolis, Ind.). The mother rats were given food and water ad libitum. The rats pups were tested in the model of chemotherapy-induced alopecia described by Hussein A. M. et al., Science: 249, 1564 (1990). Cytoxan (CTX), a chemotherapeutic widely used in the treatment of cancer, was used to induce alopecia in the rats. […]
Approximately 7 to 10 days after CTX treatment, the pups were evaluated for alopecia Hair loss was evaluated using a modified alopecia-scoring index described by Chen G. et al., Int. […]

[3] = Expt. 1, read-out: IC50 (drug concentration that caused a 50% inhibition of cell growth), Expt. 1
[4] = Expt. 2, read-out: IC50 (drug concentration that caused a 50% inhibition of cell growth), Expt. 2
[5] = Expt. 1 (first or only value in cell), read-out: DNA Bind/ppt. IC50, Expt. 1
[6] = Expt. 2 (second value in cell), read-out: DNA Bind/ppt. IC50, Expt. 2
[7] = 23SK cells treated for 72 hr (FIG. 5C)

SMILES | pIC50 [1, 3] | pIC50 [1, 4] | pIC50 (helical B-DNA; [5]) | p21 fold-induction at IC80 Dose (p21) | Cell Cycle Distribution At IC80 Dose: G1 (23SK skin cells) | Cell Cycle Distribution At IC80 Dose: G2/M (23SK skin cells) | Cell Cycle Distribution At IC80 Dose: S (23SK skin cells) | pIC50 (helical B-DNA; [6]) | hair loss induced [2] | cells in G1 compartment (23SK skin cells; [7]) | cells in S+G2 compartments (23SK skin cells; [7]) | distribution within cell cycle compartments after drug removal (23SK skin cells; 72 hr treatment, then 48 hr in medium devoid of compound (FIG. 5D))
CCNCCCCNCCCCNCCCCNCCCCNCC=C(CNC)CNCCCCNCCCCNCCCCNCCCCNCC [PrC-120] | 6.66 | 6.74 | 4.24 | 2.01 fold |  |  |  |  |  |  |  | 
CCNCCCCNCCCCNCCCCNCCCCNCC=C(CNCC)CNCCCCNCCCCNCCCCNCCCCNCC [PrC-113] |  |  |  |  | 77% | 14% | 8% |  |  |  |  | 
CCNCCCCNCCCCNCCCCNCCCCNCC=C(CNCCCCNCCCCNCCCCNCCCCNCC)CN(C)C [PrC-121] | 6.82 |  | 4.31 | 3.26 fold | 76% | 20% | 4% |  |  |  |  | 
CCNCCCCNCCCCNCC=C(CS)CNCCCCNCCCCNCC [PrC-115] | 2.39 | 2.96 | 4.43 |  |  |  |  | 4.08 |  |  |  | 
O=P1(N(CCCl)CCCl)NCCCO1 (stereo not drawn) [CTX, cyclophosphamide(cytoxan)] |  |  |  |  |  |  |  |  | 100% |  |  | 
CN[C@H]1CCc2cc(OC)c(OC)c(OC)c2-c2ccc(OC)c(=O)cc21 [Colcemid, reference compound] |  |  |  |  | 8% | 81% | 11% |  |  |  |  | 
CCNCCCCNCCCCNCCCCNCCCCNCC=C(CS)CNCCCCNCCCCNCCCCNCCCCNCC [PrC-117] | 6.49 | 6.62 | 4.24 | ˜3.0 fold | 86% | 3% | 11% | 4.24 |  | 86.23% | 13.77% | basically returned to that seen in cells previously untreated with chemoprotective polyamine
CCNCCCCNCC=C(CNCC)CNCCCCNCC [PrC-110] |  |  |  |  | 60% | 14% | 26% |  |  |  |  | 
CCNCCCCNCC=C(CS)CNCCCCNCC [PrC-114] | 3.07 | 3.62 | 4.03 |  |  |  |  |  |  |  |  | 
CCNCCCCNCCCCNCCCCNCC=C(CS)CNCCCCNCCCCNCCCCNCC [PrC-116] | 5.24 |  | 4.09 | 2.32 fold | 66% | 23% | 11% | 4.20 |  |  |  | 
CCNCCCCNCCCCNCCCCNCC=C(CNCC)CNCCCCNCCCCNCCCCNCC [PrC-112] |  |  |  |  | 61% | 16% | 23% |  |  |  |  | 
CCNCCCCNCCCCNCC=C(CNCC)CNCCCCNCCCCNCC [PrC-111] |  |  |  |  | 60% | 14% | 25% |  |  |  |  | 
